Results taken from patent US9241930B2, “Compositions and methods for treating viral diseases” (NovaDrug, LLC, priority 2011, dated 2016).

Tested on: mouse bone marrow polychromatic erythrocytes
Details: mice, single oral gavage

O=P1(N(CCCl)CCCl)NCCCO1 (centres unmarked) [Cyclophosphamide monohydrate]
bone marrow cytotoxicity (erythropoiesis): some cytotoxicity | incidence of micronucleated polychromatic erythrocytes (48 hour time-point, p≦0.05): significant increase
